Consider 8 molecules from US20230339889A1, “DERIVATIVES OF 2-OXO-N-(4-(PYRIMIDIN-4-YLOXY/THIO)PHENYL)-1,2-DIHYDROPYRIDINE-3-CARBOXAMIDE FOR USE AS PROTEIN KINASE INHIBITORS FOR THERAPY” (AUCENTRA THERAPEUTICS PTY LTD, priority 2020, published 2023).

For one experiment, the target named is T1, AXL (Homo sapiens, UniProt P30530).
T1 construct: purchased Eurofins Discovery (Kinase Profiler service)
T1 sequence (P30530 26-894): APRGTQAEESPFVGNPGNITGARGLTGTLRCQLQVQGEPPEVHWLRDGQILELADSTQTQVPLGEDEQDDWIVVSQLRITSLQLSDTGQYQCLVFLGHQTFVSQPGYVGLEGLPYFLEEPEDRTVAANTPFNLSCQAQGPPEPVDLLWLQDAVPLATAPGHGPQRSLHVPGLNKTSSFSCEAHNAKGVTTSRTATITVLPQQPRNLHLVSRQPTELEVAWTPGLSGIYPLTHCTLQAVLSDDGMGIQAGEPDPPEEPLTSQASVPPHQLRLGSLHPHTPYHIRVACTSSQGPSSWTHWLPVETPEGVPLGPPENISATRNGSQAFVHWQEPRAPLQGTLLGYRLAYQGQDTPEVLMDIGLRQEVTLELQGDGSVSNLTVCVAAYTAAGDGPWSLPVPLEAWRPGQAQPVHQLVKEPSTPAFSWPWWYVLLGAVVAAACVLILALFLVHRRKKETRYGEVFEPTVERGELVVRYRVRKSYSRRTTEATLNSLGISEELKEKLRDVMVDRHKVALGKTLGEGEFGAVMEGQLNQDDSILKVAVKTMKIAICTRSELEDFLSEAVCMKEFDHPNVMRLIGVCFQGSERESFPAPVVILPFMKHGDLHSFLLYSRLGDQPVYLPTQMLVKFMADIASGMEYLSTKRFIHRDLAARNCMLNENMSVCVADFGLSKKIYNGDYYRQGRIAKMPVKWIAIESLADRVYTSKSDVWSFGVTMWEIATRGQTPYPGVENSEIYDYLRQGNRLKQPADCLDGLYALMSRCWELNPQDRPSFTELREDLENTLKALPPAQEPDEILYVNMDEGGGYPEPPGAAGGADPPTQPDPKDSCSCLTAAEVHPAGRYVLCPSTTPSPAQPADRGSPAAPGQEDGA
The experiment is described as follows: Filter-binding radiometric kinase activity assay (KinaseProfiler, Eurofins). The class given is biochemical. The settings on record: 1 µM compound; read-out: % Residual enzymatic activity at 1 µM AXL. As to the method:
(§1) Filter-binding radiometric kinase activity assay (Kinase Profiler™) from Eurofins Discovery was used to determine the % of inhibition and/or IC50 values. […] The reaction is initiated by the addition of the Mg/ATP mixture. After incubation for 40 minutes at room temperature, the reaction is stopped by the addition of phosphoric acid to a concentration of 0.5%. 10 µL of the reaction is then spotted onto a P30 filter mat and washed four times for 4 minutes in 0.425% phosphoric acid and once in methanol prior to drying and scintillation counting. The IC50 values were derived by fitting a sigmoidal dose-response curve to a plot of assay readout over inhibitor concentration. All fits were computed with the GraphPad Prism Software (San Diego, CA, United States of America). Ki values were derived from IC5o values using Cheng Prusoff equation (Cheng Y et al., Biochem Pharmacol 22(23):3099-3108, 1973).

In another experiment the target is T2, MET (Homo sapiens, UniProt P08581).
T2 construct: purchased Eurofins Discovery (Kinase Profiler service)
T2 sequence (P08581 25-1390): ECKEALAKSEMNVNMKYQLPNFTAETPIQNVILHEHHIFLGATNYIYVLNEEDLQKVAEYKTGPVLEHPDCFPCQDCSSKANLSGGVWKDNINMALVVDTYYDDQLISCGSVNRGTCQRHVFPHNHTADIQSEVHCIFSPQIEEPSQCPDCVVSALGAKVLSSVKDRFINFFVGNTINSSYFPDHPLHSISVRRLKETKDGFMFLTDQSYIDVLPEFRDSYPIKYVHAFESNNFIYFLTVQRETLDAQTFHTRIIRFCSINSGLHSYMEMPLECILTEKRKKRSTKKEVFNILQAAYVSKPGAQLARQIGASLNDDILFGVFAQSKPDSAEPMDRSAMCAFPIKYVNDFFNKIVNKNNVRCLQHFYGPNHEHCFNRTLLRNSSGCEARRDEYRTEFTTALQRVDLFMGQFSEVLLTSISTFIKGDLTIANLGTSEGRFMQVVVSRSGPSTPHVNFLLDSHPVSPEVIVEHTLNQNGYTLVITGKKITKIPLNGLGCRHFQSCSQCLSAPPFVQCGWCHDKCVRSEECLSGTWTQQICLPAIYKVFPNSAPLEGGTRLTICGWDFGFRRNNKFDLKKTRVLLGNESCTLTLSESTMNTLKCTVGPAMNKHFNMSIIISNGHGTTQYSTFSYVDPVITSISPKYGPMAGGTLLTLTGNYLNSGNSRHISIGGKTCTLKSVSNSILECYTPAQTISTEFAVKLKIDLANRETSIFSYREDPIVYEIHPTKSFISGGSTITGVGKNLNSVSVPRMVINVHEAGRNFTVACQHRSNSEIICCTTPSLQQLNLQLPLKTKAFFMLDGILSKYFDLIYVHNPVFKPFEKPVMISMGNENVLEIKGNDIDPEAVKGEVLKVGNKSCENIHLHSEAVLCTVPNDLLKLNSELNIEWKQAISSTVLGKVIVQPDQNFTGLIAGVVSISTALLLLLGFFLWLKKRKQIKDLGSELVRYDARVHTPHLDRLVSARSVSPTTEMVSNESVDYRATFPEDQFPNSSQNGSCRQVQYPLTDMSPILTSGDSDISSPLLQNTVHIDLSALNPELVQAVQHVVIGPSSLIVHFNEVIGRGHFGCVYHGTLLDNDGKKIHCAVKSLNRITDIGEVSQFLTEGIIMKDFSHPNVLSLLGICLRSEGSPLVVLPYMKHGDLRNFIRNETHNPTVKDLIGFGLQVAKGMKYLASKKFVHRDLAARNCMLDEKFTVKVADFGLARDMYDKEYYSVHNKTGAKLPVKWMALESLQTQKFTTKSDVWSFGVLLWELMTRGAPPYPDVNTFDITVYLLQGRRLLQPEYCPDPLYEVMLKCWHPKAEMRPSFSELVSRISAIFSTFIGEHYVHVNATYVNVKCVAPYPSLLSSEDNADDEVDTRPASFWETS
The description is as above. The experiment is classed as biochemical. The settings on record: 1 µM compound; read-out: % Residual enzymatic activity at 1 µM MET. As to the method: as §1

Another experiment addresses T3, Mer (Homo sapiens, UniProt Q12866).
T3 construct: purchased Eurofins Discovery (Kinase Profiler service)
T3 sequence (Q12866 21-999): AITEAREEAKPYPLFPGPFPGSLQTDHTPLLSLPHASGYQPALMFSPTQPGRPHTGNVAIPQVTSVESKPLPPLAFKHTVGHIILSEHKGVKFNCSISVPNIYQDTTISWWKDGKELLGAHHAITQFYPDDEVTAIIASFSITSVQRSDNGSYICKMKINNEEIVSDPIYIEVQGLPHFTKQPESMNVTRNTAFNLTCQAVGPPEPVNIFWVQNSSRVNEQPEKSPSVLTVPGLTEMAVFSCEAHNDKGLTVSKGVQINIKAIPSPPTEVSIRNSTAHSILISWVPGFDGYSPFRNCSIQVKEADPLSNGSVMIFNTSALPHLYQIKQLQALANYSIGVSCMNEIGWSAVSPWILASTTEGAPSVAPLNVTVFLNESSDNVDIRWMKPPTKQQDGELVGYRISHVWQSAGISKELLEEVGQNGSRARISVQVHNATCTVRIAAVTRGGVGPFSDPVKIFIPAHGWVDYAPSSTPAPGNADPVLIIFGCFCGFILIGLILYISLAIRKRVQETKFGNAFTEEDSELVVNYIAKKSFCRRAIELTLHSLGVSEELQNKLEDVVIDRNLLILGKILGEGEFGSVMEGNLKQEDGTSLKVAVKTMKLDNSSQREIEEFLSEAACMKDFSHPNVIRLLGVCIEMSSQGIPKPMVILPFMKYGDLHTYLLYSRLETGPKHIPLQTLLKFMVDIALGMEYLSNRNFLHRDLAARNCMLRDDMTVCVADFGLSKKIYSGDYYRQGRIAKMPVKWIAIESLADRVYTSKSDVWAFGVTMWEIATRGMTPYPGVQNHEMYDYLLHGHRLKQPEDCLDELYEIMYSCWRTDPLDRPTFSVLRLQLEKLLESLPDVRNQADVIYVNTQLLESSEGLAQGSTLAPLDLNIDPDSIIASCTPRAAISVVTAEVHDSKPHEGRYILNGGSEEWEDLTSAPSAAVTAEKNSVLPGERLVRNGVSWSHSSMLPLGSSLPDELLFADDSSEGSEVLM
The description is as above. The experiment is classed as biochemical. The settings on record: 1 µM compound; read-out: % Residual enzymatic activity at 1 µM Mer. The procedure: as §1

The target of a further experiment is T4, TYRO3 (Homo sapiens, UniProt Q06418).
T4 construct: purchased Eurofins Discovery (Kinase Profiler service)
T4 sequence (Q06418 41-890): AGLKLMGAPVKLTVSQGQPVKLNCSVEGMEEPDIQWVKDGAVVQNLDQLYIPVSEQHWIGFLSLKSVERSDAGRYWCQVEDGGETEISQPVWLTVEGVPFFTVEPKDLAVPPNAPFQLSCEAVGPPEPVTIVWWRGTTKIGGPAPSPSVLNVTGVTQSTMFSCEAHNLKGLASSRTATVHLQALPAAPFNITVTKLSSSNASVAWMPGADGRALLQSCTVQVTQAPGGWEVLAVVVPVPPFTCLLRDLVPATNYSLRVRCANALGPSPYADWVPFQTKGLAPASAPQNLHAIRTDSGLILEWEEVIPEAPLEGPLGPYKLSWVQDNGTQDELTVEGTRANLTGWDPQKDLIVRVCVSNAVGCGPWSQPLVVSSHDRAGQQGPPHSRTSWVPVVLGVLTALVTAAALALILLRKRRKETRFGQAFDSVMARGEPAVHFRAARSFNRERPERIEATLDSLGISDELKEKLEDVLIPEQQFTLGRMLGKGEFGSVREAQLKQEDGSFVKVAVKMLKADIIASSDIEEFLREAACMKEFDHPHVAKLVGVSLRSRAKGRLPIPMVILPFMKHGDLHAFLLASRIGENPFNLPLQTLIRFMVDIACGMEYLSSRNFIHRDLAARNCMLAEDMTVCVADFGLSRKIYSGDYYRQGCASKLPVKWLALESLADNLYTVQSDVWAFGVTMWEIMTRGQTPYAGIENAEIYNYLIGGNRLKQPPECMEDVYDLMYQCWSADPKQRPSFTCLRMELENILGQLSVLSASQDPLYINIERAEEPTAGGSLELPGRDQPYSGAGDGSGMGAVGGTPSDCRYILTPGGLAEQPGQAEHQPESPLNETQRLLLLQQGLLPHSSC
Described as above. The settings on record: 1 µM compound; read-out: % Residual enzymatic activity at 1 µM TYRO3. The experiment is classed as biochemical. The procedure: as §1

Another experiment deals with FLT3-ITD. The experiment is described as follows: ADP Glo Kinase assay. The following applies: 1 µM compound. The class given is biochemical. The procedure:
(§2) Inhibition of CDKs and FLT3 were determined using ADP Glo Kinase assays, as previously described in International Patent Publication No WO 2017/020065.

Another experiment concerns MV4-11. The experiment in a line: Proliferation assay (MTT, leukaemia cancer cell line). The class given is cell-based. The following applies: Homo sapiens; 1 µM compound, MV4-11 cells. From the text: Compounds from Example 1 were subjected to standard resazurin and MTT assays on solid tumour and leukaemia cancer cell lines, respectively, as previously reported (Wang S et al., J Med Chem 47:1662-1675, 2004 and Diab S et al., CheMedChem 9:962-972, 2014).

The target in the next experiment is CDK2E (Homo sapiens, UniProt P24941). The experiment is described as follows: ADP Glo Kinase assay. The class given is biochemical. The following applies: 1 µM compound; read-out: % Residual enzymatic activity at 1 µM CDK2E. The procedure: as §2
A general note: ADP-Glo first removes unused ATP, then detects ADP through luciferase.

As to `Nc1ncnc(Oc2ccc(NC(=O)c3cccn(-c4ccc(F)cc4)c3=O)cc2Cl)c1F` [Cmpd 22, N-(4-((6-amino-5-fluoropyrimidin-4-yl)oxy)-3-chlorophenyl)-1-(4-fluorophenyl)-2-oxo-1,2-dihydropyridine-3-carboxamide], the remaining activity at 1 µM was 57% on AXL, 93% on MET, 89% at Mer and 63% at TYRO3. Further, the “% Residual enzymatic activity at 1 µM FLT3-ITD” value (shortened to “% Residual enzymatic activity”) in the experiment on FLT3-ITD is reported as 43%. For the same molecule, the activity at 1 µM in the experiment with MV4-11 stood at 3%.

`Nc1ncnc(Oc2ccc(NC(=O)c3cccn(-c4ccc(OC(F)(F)F)cc4)c3=O)cc2F)c1F` [Cmpd 8, N-(4-((6-amino-5-fluoropyrimidin-4-yl)oxy)-3-fluorophenyl)-2-oxo-1-(4-(trifluoromethoxy)phenyl)-1,2-dihydropyridine-3-carboxamide]: the remaining activity at 1 µM at AXL came to 112%; on MET it was 85%; on Mer it was 100%; at TYRO3, 111%. For the same molecule, in the experiment on FLT3-ITD, the “% Residual enzymatic activity” value stood at 91%.

Take `Nc1ncnc(Oc2ccc(NC(=O)c3cccn(-c4ccc(C(F)(F)F)cc4)c3=O)cc2F)c1F` [Cmpd 9, N-(4-((6-amino-5-fluoropyrimidin-4-yl)oxy)-3-fluorophenyl)-2-oxo-1-(4-(trifluoromethyl)phenyl)-1,2-dihydropyridine-3-carboxamide]: the remaining activity at 1 µM on AXL is 105%; at MET, 64%; on Mer, 85%; on TYRO3, 106%. Further, in the experiment on FLT3-ITD, the “% Residual enzymatic activity” value came out at 88%.

For `Nc1ncnc(Oc2ccc(NC(=O)c3cccn(-c4ccc(F)cc4)c3=O)c(Cl)c2)c1Cl` [Cmpd 37, N-(4-((6-amino-5-chloropyrimidin-4-yl)oxy)-2-chlorophenyl)-1-(4-fluorophenyl)-2-oxo-1,2-dihydropyridine-3-carboxamide], the remaining activity at 1 µM at AXL was 78%; on MET it was 88%; on Mer it was 87%; on TYRO3 it was 39%; at CDK2E it was 96%. For the same molecule, the activity at 1 µM in the experiment with MV4-11 is 48%.

In the case of `Nc1ncnc(Nc2ccc(NC(=O)c3cccn(-c4ccc(F)cc4)c3=O)cc2F)c1Cl` [Cmpd 36, N-(4-((6-amino-5-chloropyrimidin-4-yl)amino)-3-fluorophenyl)-1-(4-fluorophenyl)-2-oxo-1,2-dihydropyridine-3-carboxamide], the remaining activity at 1 µM on AXL came to 97%; on MET, 87%; at Mer it was 99%; at TYRO3, 70%; on CDK2E, 96%. This molecule also yielded an activity at 1 µM in the experiment on MV4-11 of 4%.

Consider `Nc1ncnc(Sc2ccc(NC(=O)c3cccn(-c4ccc(F)cc4)c3=O)cc2F)c1Cl` [Cmpd 17, N-(4-((6-amino-5-chloropyrimidin-4-yl)thio)-3-fluorophenyl)-1-(4-fluorophenyl)-2-oxo-1,2-dihydropyridine-3-carboxamide], for which the remaining activity at 1 µM at AXL amounted to 55%; at MET, 65%; at Mer, 81%; on TYRO3, 52%; at CDK2E, 101%. Also, the activity at 1 µM with MV4-11 amounted to 4%.

Consider `Nc1ncnc(Oc2ccc(NC(=O)c3cccn(-c4ccc(Cl)cc4)c3=O)c(F)c2)c1Cl` [Cmpd 33, N-(4-((6-amino-5-chloropyrimidin-4-yl)oxy)-2-fluorophenyl)-1-(4-chlorophenyl)-2-oxo-1,2-dihydropyridine-3-carboxamide], for which the remaining activity at 1 µM amounted to 23% on AXL; 10% on MET; 74% on Mer; 6% at TYRO3; 82% at CDK2E. Besides, the activity at 1 µM with MV4-11 is 1%.

With `Nc1ncnc(Oc2ccc(NC(=O)c3cccn(-c4ccc(F)cc4)c3=O)c(Cl)c2)c1F` [Cmpd 38, N-(4-((6-amino-5-fluoropyrimidin-4-yl)oxy)-2-chlorophenyl)-1-(4-fluorophenyl)-2-oxo-1,2-dihydropyridine-3-carboxamide], the remaining activity at 1 µM stood at 69% on AXL; 68% at MET; 92% at Mer; 50% on TYRO3; 90% on CDK2E. The activity at 1 µM in the experiment with MV4-11 was found to be 43%.
